Data taken from patent US9833497B2, “Human originated EGF domain proteins and use of the same” (CHENGDU SOURCEBIO LIMITED-LIABILITY COMPANY, priority 2013, dated 2017).

Key:
Assay type in all cases: cell-based
Serratia marcescens = assay: MIC against Gram-negative bacteria: Serratia marcescens; settings: for MIC: S. marcescens
Method in brief: (§1)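 Broth microdilution, LB medium, final inoculum 5×10^5 CFU/mL from McFarland 0.5 cultures. Recombinant human EGF domain proteins tested in two-fold steps, n=3. MIC: lowest concentration, no growth.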

Moraxella catarrhalis = assay: MIC against Gram-negative bacteria: Moraxella catarrhalis; settings: for MIC: M. catarrhalis
Method in brief: as §1

Proteus mirabilis = assay: MIC against Gram-negative bacteria: Proteus mirabilis; settings: for MIC: P. mirabilis
Method in brief: as §1

E. coli BL21 = assay: MIC against Gram-negative bacteria: E. coli BL21
Method in brief: as §1

Klebsiella pneumonia = assay: MIC against Gram-negative bacteria: Klebsiella pneumonia; settings: for MIC: K. pneumonia
Method in brief: as §1

Citrobacter diversus = assay: MIC against Gram-negative bacteria: Citrobacter diversus; settings: for MIC: C. diversus
Method in brief: as §1

Proteus vulgaris = assay: MIC against Gram-negative bacteria: Proteus vulgaris; settings: for MIC: P. vulgaris
Method in brief: as §1

Aeromonas hydrophila = assay: MIC against Gram-negative bacteria: Aeromonas hydrophila; settings: for MIC: A. hydrophila
Method in brief: as §1

E. coli DH5α = assay: Antibacterial activity: MIC and growth curve against E. coli DH5α in 96-well plate; settings: minimal inhibitory concentration against E. coli DH5α; 96-well plate, 5×10^5 CFU/mL, 37° C., judged after 8 h
Method in brief: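 MIC taken as lowest protein level with no bacterial growth, tracked by A600 every 30 min during 37 °C, 175 rpm culture. Two-fold protein series 50-12.5 μg/mL final, triplicate wells, against 5×10^5 CFU/mL of LB-washed mid-log cells.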

Pseudomonas aeruginosa = assay: MIC against Gram-negative bacteria: Pseudomonas aeruginosa; settings: for MIC: P. aeruginosa
Method in brief: as §1

Enterobacter cloacae = assay: MIC against Gram-negative bacteria: Enterobacter cloacae; settings: for MIC: E. cloacae
Method in brief: as §1

[1] = Serratia marcescens, 96-well plate, 5×10^5 CFU/mL, 37° C., 10 h
[2] = Moraxella catarrhalis, 96-well plate, 5×10^5 CFU/mL, 37° C., 10 h
[3] = Proteus mirabilis, 96-well plate, 5×10^5 CFU/mL, 37° C., 10 h
[4] = E. coli BL21, 96-well plate, 5×10^5 CFU/mL, 37° C., 10 h
[5] = Klebsiella pneumonia, 96-well plate, 5×10^5 CFU/mL, 37° C., 10 h
[6] = Citrobacter diversus, 96-well plate, 5×10^5 CFU/mL, 37° C., 10 h
[7] = Proteus vulgaris, 96-well plate, 5×10^5 CFU/mL, 37° C., 10 h
[8] = Aeromonas hydrophila, 96-well plate, 5×10^5 CFU/mL, 37° C., 10 h
[9] = Pseudomonas aeruginosa, 96-well plate, 5×10^5 CFU/mL, 37° C., 10 h
[10] = Enterobacter cloacae, 96-well plate, 5×10^5 CFU/mL, 37° C., 10 h
[11] = 96-well plate, 5×10^5 CFU/mL, 37° C., 10 h
[12] = 10 h cultivation at 37° C., 5×10^5 CFU/mL

PRT1359 (SREICPVPCSEEHGTCVDGLCVCHDGFAGDDCN; listed as Homo sapiens)
MIC against S. marcescens (Serratia marcescens; Serratia marcescens, 5×10^5 CFU/mL, 10 h cultivation at 37° C.): 25 µg/mL
MIC against M. catarrhalis (Moraxella catarrhalis; Moraxella catarrhalis, 5×10^5 CFU/mL, 10 h cultivation at 37° C.): 12.5 µg/mL
MIC against P. mirabilis (Proteus mirabilis; Proteus mirabilis, 5×10^5 CFU/mL, 10 h cultivation at 37° C.): 25 µg/mL
MIC against E. coli BL21 (E. coli BL21; E. coli BL21, 5×10^5 CFU/mL, 10 h cultivation at 37° C.): 12.5 µg/mL
MIC against K. pneumonia (Klebsiella pneumonia; Klebsiella pneumonia, 5×10^5 CFU/mL, 10 h cultivation at 37° C.): 12.5 µg/mL
MIC against C. diversus (Citrobacter diversus; Citrobacter diversus, 5×10^5 CFU/mL, 10 h cultivation at 37° C.): 25 µg/mL
MIC against P. vulgaris (Proteus vulgaris; Proteus vulgaris, 5×10^5 CFU/mL, 10 h cultivation at 37° C.): 12.5 µg/mL
MIC against A. hydrophila (Aeromonas hydrophila; Aeromonas hydrophila, 5×10^5 CFU/mL, 10 h cultivation at 37° C.): 12.5 µg/mL
MIC (E. coli DH5α): 25 µg/mL
MIC against P. aeruginosa (Pseudomonas aeruginosa; Pseudomonas aeruginosa, 5×10^5 CFU/mL, 10 h cultivation at 37° C.): 25 µg/mL
MIC against E. cloacae (Enterobacter cloacae; Enterobacter cloacae, 5×10^5 CFU/mL, 10 h cultivation at 37° C.): 25 µg/mL

PRT1258 (GRTCIETCAVNNGGCDRTCKDTATGVRCSCPVGFTLQPD; listed as Homo sapiens)
MIC against S. marcescens (Serratia marcescens; [1]): 12.5 µg/mL
MIC against M. catarrhalis (Moraxella catarrhalis; [2]): 12.5 µg/mL
MIC against P. mirabilis (Proteus mirabilis; [3]): 50 µg/mL
MIC against E. coli BL21 (E. coli BL21; [4]): 25 µg/mL
MIC against K. pneumonia (Klebsiella pneumonia; [5]): 25 µg/mL
MIC against C. diversus (Citrobacter diversus; [6]): 50 µg/mL
MIC against P. vulgaris (Proteus vulgaris; [7]): 25 µg/mL
MIC against A. hydrophila (Aeromonas hydrophila; [8]): 25 µg/mL
MIC (E. coli DH5α): 12.5 µg/mL
MIC against P. aeruginosa (Pseudomonas aeruginosa; [9]): 50 µg/mL
MIC against E. cloacae (Enterobacter cloacae; [10]): 12.5 µg/mL

PRT93 (PLLHCAPGFCFPGVACIQTESGARCGPCPAGFTGNGSHCT; listed as Homo sapiens)
MIC (μg/mL) S. marcescens (Serratia marcescens; [1]): 12.5 µg/mL
MIC (μg/mL) M. catarrhalis (Moraxella catarrhalis; [2]): 25 µg/mL
MIC (μg/mL) P. mirabilis (Proteus mirabilis; [3]): 12.5 µg/mL
MIC (μg/mL) E. coli BL21 (E. coli BL21; [4]): 12.5 µg/mL
MIC (μg/mL) K. pneumonia (Klebsiella pneumonia; [5]): 12.5 µg/mL
MIC (μg/mL) C. diversus (Citrobacter diversus; [6]): 100 µg/mL
MIC (μg/mL) P. vulgaris (Proteus vulgaris; [7]): 12.5 µg/mL
MIC (μg/mL) A. hydrophila (Aeromonas hydrophila; [8]): 25 µg/mL
MIC (E. coli DH5α): 50 µg/mL
MIC (μg/mL) P. aeruginosa (Pseudomonas aeruginosa; [9]): 50 µg/mL
MIC (μg/mL) E. cloacae (Enterobacter cloacae; [10]): 12.5 µg/mL

PRT684 (APVLCPLICHNGGVCVKPDRCLCPPDFAGKFCQ; listed as Homo sapiens)
MIC S. marcescens (Serratia marcescens; [11]): 12.5 µg/mL
MIC M. catarrhalis (Moraxella catarrhalis; [11]): 12.5 µg/mL
MIC P. mirabilis (Proteus mirabilis; [11]): 25 µg/mL
MIC E. coli BL21 (E. coli BL21; [11]): 25 µg/mL
MIC K. pneumonia (Klebsiella pneumonia; [11]): 25 µg/mL
MIC C. diversus (Citrobacter diversus; [11]): 25 µg/mL
MIC P. vulgaris (Proteus vulgaris; [11]): 50 µg/mL
MIC A. hydrophila (Aeromonas hydrophila; [11]): 50 µg/mL
MIC (E. coli DH5α): 12.5 µg/mL
MIC P. aeruginosa (Pseudomonas aeruginosa; [11]): 50 µg/mL
MIC E. cloacae (Enterobacter cloacae; [11]): 12.5 µg/mL

PRT424 (DINECVTDLHTCSRGEHCVNTLGSFHCYKALTCEPGYALKDGECE; listed as Homo sapiens)
MIC (Serratia marcescens; [12]): 25 µg/mL
MIC (Moraxella catarrhalis; [12]): 12.5 µg/mL
MIC (Proteus mirabilis; [12]): 25 µg/mL
MIC (E. coli BL21; E. coli BL21, 10 h cultivation at 37° C., 5×10^5 CFU/mL): 50 µg/mL
MIC (Klebsiella pneumonia; [12]): 12.5 µg/mL
MIC (Citrobacter diversus; [12]): 25 µg/mL
MIC (Proteus vulgaris; [12]): 50 µg/mL
MIC (Aeromonas hydrophila; [12]): 50 µg/mL
MIC (E. coli DH5α): 25 µg/mL
MIC (Pseudomonas aeruginosa; [12]): 25 µg/mL
MIC (Enterobacter cloacae; [12]): 25 µg/mL

PRT923 (LDDACISNPCHKGALCDTNPLNGQYICTCPQGYKGADCT; listed as Homo sapiens)
MIC (Serratia marcescens; 10 h cultivation at 37° C.): 25 µg/mL
MIC (Moraxella catarrhalis; 10 h cultivation at 37° C.): 12.5 µg/mL
MIC (Proteus mirabilis; 10 h cultivation at 37° C.): 25 µg/mL
MIC (E. coli BL21; E. coli BL21, 10 h cultivation at 37° C.): 50 µg/mL
MIC (Klebsiella pneumonia; 10 h cultivation at 37° C.): 25 µg/mL
MIC (Citrobacter diversus; 10 h cultivation at 37° C.): 25 µg/mL
MIC (Proteus vulgaris; 10 h cultivation at 37° C.): 50 µg/mL
MIC (Aeromonas hydrophila; 10 h cultivation at 37° C.): 50 µg/mL
MIC (E. coli DH5α): 25 µg/mL
MIC (Pseudomonas aeruginosa; 10 h cultivation at 37° C.): 25 µg/mL
MIC (Enterobacter cloacae; 10 h cultivation at 37° C.): 12.5 µg/mL

PRT513 (CECDPYGSLPVPCDPVTGFCTCRPGATGRKCDGCKHWHAREGWECVF; listed as Homo sapiens)
MIC against S. marcescens (Serratia marcescens; [11]): 12.5 µg/mL
MIC against M. catarrhalis (Moraxella catarrhalis; [11]): 12.5 µg/mL
MIC against P. mirabilis (Proteus mirabilis; [11]): 50 µg/mL
MIC against E. coli BL21 (E. coli BL21; [11]): 12.5 µg/mL
MIC against K. pneumonia (Klebsiella pneumonia; [11]): 12.5 µg/mL
MIC against C. diversus (Citrobacter diversus; [11]): 25 µg/mL
MIC against P. vulgaris (Proteus vulgaris; [11]): 12.5 µg/mL
MIC against A. hydrophila (Aeromonas hydrophila; [11]): 50 µg/mL
MIC (E. coli DH5α): 50 µg/mL
MIC against P. aeruginosa (Pseudomonas aeruginosa; [11]): 50 µg/mL
MIC against E. cloacae (Enterobacter cloacae; [11]): 25 µg/mL
